One data set relates to MDA-MB-435 cells. The data set is described as follows: Screening test 2: doxorubicin cytotoxicity, neutral red cell viability. It is filed as cell-based. The following applies: 24 hours; for increase of cell mortality induced by dxr (dxr cytotoxicity enhancement): MDA-MB-435, paniceins 10 μM, dxr 2 μM. The procedure:
(§1) Cells were grown in 96 well plates in complete DMEM medium to achieve 60% to 70% confluence. Medium was then removed and replaced with 100 μL/well of complete DMEM medium containing paniceins at 10 μM (or at increasing concentrations for EC50 measurement) or DMSO as control. After 2 hours, 100 μL of complete DMEM medium containing doxorubicin was added in half wells to obtain the final concentration of 2 μM for MDA-MB-435 and MeWo, and 1.5 μM for A375. The cell viability was measured after 24 hours. Effect of compounds P2, P3, P4 and P5 on cell viability, and dose-response for compound P5 are shown for MDA-MB-435 (A), MeWo (B) and A375 (C). D. Enhancement of dxr cytotoxicity by paniceins is represented. The means (+/−sem) of at least three independent experiments are reported.
(§2) Melanoma cells MDA-MB-435, Mewo and A375 were seeded on 96-well plates and grown 48 hours in complete DMEM medium to achieve 60% to 70% confluence. Medium was then removed and replaced with 100 μL/well of complete DMEM medium containing the compounds of interest at defined concentration or DMSO as control. After 2 hours, 100 µL of complete DMEM medium containing doxorubicin was added in half wells to obtain 2 μM doxorubicin. Plates were incubated at 37° C. in a 5% CO2/95% air water-saturated atmosphere. After 24 hours, microplates were incubated 3 hours at 37° C. with 100 μL/wells neutral red (NR) solution (50 μg/mL in DMEM). After a rapid wash with PBS at 4° C., microplates were gently tapped several times on absorbent paper. Cells were solubilized with 100 μL of a solution containing 1% acetic acid, 49% H2O, 50% ethanol by vortexing 3 minutes at 700 rpm and the absorbance at 600 nm was measured. EC50 were calculated using Regressi software.

In another data set the test system is MeWo cells. Described as above. It is filed as cell-based. The following applies: dxr 2 μM, 24 hours; for increase of cell mortality induced by dxr (dxr cytotoxicity enhancement): paniceins 10 μM. The procedure:
as §1, §2

A further data set concerns A375 cells. Described as above. The format is cell-based. The settings on record: 24 hours; for increase of cell mortality induced by dxr (dxr cytotoxicity enhancement): A375, paniceins 10 μM, dxr 1.5 μM. The procedure: as §1, §2
The subject of a further data set is control yeasts. The data set is described as follows: Doxorubicin efflux from yeasts (intracellular dxr fluorescence). It is filed as cell-based, Saccharomyces cerevisiae. The following applies: 10 μM paniceins, 10 min, 5 mM 2-deoxy-D-glucose. As for the experimental part:
A. Compound P5 inhibits doxorubicin efflux from melanoma cells MeWo and A375. Cells were grown on cover-slips, incubated for 2 hour at 37° C. with 10 μM doxorubicin and quickly rinsed with phosphate buffer (pH 7.4). One cover-slip of each cell line was immediately fixed for doxorubicin charge control. The other cover-slips were incubated with buffer supplemented with DMSO or 10 μM of compound P5 30 min under gentle shaking and immediately fixed. Dxr intracellular fluorescence was visualized by epifluorescence and analyzed using Image J software on more than 30 cells of 3 different fields for each condition. The results were analyzed using the Student t test in which significance is attained at P<0.05 (**: P<0.005, ***: P<0.0005). B. Paniceins inhibit doxorubicin efflux from Patched-expressing yeasts. Yeasts expressing wild-type Patched (hPtc, in black), mutant Patched G509VD513Y (hPtcVXXXY, in grey), and control yeasts (in white) were incubated in buffer supplemented with 5 mM of 2-deoxy-D-glucose and 10 μM dxr for 2 hours at 4° C. After centrifugation and supernatant removing, one sample was immediately fixed for charge control and the other samples were resuspended in buffer containing 5 mM of 2-deoxy-D-glucose supplemented with DMSO or 10 μM of paniceins 10 minutes at 25° C. with gentle shaking. After centrifugation and supernatant removing, samples were fixed and deposited on coverslips for epifluorescence microscopy observation. Dxr intracellular fluorescence quantification was carried out using Image J software on more than 30 yeasts on 3 different fields for each condition. The results were analyzed using the Student t test in which significance is attained at P<0.05 (*).
On yeasts: Yeasts expressing Patched (hPtc), mutant Patched (hPtcG509VD513Y), or control yeasts were washed with cold water, resuspended at an OD600 of 10 in Hepes-NaOH buffer (pH 7.0) supplemented with 5 mM of 2-deoxy-D-glucose, and incubated with 10 μM doxorubicin for 2 hours at 4° C. in the cold room on a rotating wheel protected from light. Yeasts were centrifuged and the supernatant was removed. One sample was immediately fixed with 4% paraformaldehyde for doxorubicin loading control. […] Quantification of doxorubicin intracellular fluorescence was carried out using Image J software on more than 30 yeasts on 3 different fields for each condition. The results were analyzed using the Student t test in which significance is attained at P <0.05.
In order to see if Paniceins inhibit dxr efflux through Patched inhibition, inventors compared dxr efflux on yeasts over-expressing human Patched and control yeasts. […] Dxr fluorescence intensity of at least 30 yeasts was measured for each experiment. FIGS. 6A and 12A show the mean fluorescence intensity of 3 independent experiments. […]

Consider `C/C(=C\Cc1cc(O)ccc1O)CCc1c(C)c(O)c(O)c(C=O)c1C` [P2, Panicein C], for which the figures for the “increase of cell mortality induced by dxr (dxr cytotoxicity enhancement)” value (shortened to “increase of cell mortality induced”) in the data set with MDA-MB-435 cells, in the data set on MeWo cells and in the data set on A375 cells were “about 2 times”, “about 2 times” and “no effect”, respectively. In the data set with control yeasts, the “Efflux (%) of dxr” value is listed as 20%.

In the case of `C/C(=C\Cc1cc(O)ccc1O)CCc1c(C)cc(O)c(C=O)c1C` [P3, Panicein B3], the results for the “increase of cell mortality induced” value with MDA-MB-435 cells, in the data set with MeWo cells and with A375 cells were “about 2 times”, “about 2 times” and “no effect”, respectively. Moreover, the “Efflux (%) of dxr” value in the data set with control yeasts is reported as 25%.

With `Cc1cc(O)c(C=O)c(C)c1CCC1(C)C=Cc2cc(O)ccc2O1` (centres unmarked) [P4, Panicein B2], the “increase of cell mortality induced” value is reported as “about 2 times” in the data set on MDA-MB-435 cells, “about 2 times” with MeWo cells and “no effect” in the data set on A375 cells. Moreover, the “Efflux (%) of dxr” value with control yeasts came out at 29%.

Turning to `COc1cc(C)c(CC/C(C)=C/Cc2cc(O)ccc2O)c(C)c1C` [P5, Panicein A hydroquinone], the EC50 turned out to be 9.3 µM in the data set with MDA-MB-435 cells (Homo sapiens, MDA-MB-435, dxr 2 μM, read-out: concentration inducing 50% of dxr cytotoxicity enhancement (EC50)); 5 µM in the data set on MeWo cells (Homo sapiens, read-out: concentration inducing 50% of dxr cytotoxicity enhancement (EC50)); 22.5 µM with A375 cells (Homo sapiens, A-375, A375, dxr 1.5 μM, read-out: concentration inducing 50% of dxr cytotoxicity enhancement (EC50)). The “increase of cell mortality induced” value in the data set with A375 cells is given as “about 2 times”. Besides, the “Efflux (%) of dxr” value in the data set on control yeasts was determined as 39%.

The values above are taken from patent US10376476B2, “Panicein compounds, compositions and uses thereof” (CENTRE NATIONAL DE LA RECHERCHE SCIENTIFIQUE, priority 2014, dated 2019).
